Experimental data: patent US12115178B2, “Acylated active agents and methods of their use for the treatment of autoimmune disorders” (Flagship Pioneering Innovations V, Inc., priority 2018, dated 2024)

Tests used:
[1] = Assay 2. Stability in Simulated Intestinal Fluid (SIF); assay type: in vitro ADME; conditions: SIF pH 6.7 with pancreatin, 1 μM, 37° C.
Protocol: Assay 2. Stability of acylated active agents in Simulated Intestinal Fluid (SIF). This assay was used to assess the stability of an acylated active agent in a small intestine. Phosphate buffer was prepared by dissolving 0.42 g of sodium hydroxide pellets and 3.95 g of monobasic sodium phosphate monohydrate and 6.19 g of sodium chloride in ultrapure water (MilliQ®, Millipore Sigma, Darmstadt, Germany). The pH was adjusted to 6.7 using aq. HCl and aq. NaOH, as necessary, and the solution was diluted with ultrapure water to produce 1 L of the pH 6.7 buffer. 112 mg FaSSIF powder (Biorelevant™, London, UK) was dissolved in 50 mL of the pH 6.7 buffer. 2 to 3 mL of the resulting solution were then added to 500 mg pancreatin (Millipore Sigma, Darmstadt, Germany). The resulting mixture was agitated by finger tapping the vessel containing the mixture until milky suspension formed. At this time, the remainder of the 50 mL FaSSiF/pH 6.7 buffer solution was added. The resulting suspension was flipped upside down 10 times to produce SIF, which was used fresh. Test compounds were dissolved in DMSO stock to 1 mM. An aliquot of the DMSO stock solution was removed and diluted in the SIF media in 15 mL falcon tubes to produce a mixture with a tested compound concentration of 1 μM. A 1 mL aliquot was immediately removed and diluted once with 1 volume of acetonitrile for T0 timepoint. The mixture was sealed and agitated at 37° C. in an incubator. Aliquots (1 mL) were removed at regular intervals and immediately quenched by the addition of 1 volume of acetonitrile. The resulting samples were analyzed by LC/MS to determine degradation rates.

[2] = Assay 1. Stability in Simulated Gastric Fluid (SGF); assay type: in vitro ADME; conditions: SGF pH 1.6 with pepsin, 1 μM, 37° C.
Protocol: Assay 1. Stability of acylated active agents in Simulated Gastric Fluid (SGF). This assay was used to assess the stability of an acylated active agent in a stomach.
Medium was prepared by dissolving 2 g of sodium chloride in 0.6 L in ultrapure water (MilliQ®, Millipore Sigma, Darmstadt, Germany). The pH was adjusted to 1.6 with 1N hydrochloric acid, and the volume was then adjusted to 1 L with purified water.
60 mg FaSSIF powder (Biorelevant™, London, UK) were dissolved in 500 mL buffer (above). Pepsin was added (0.1 mg/mL) (Millipore Sigma, Darmstadt, Germany), and the solution was stirred. The resulting SGF media were used fresh for each experiment.
Test compounds were dissolved in DMSO stock to 1 mM. An aliquot of the DMSO stock solution was removed and diluted in the SGF Media in 15 mL falcon tubes to generate a total compound concentration of 1 μM. A 1 mL aliquot was immediately removed and diluted once with 1 volume of acetonitrile for T0 timepoint. The mixture was sealed and mixed at 37° C. in an incubator. Aliquots (1 mL) were removed at regular intervals and immediately quenched by the addition of 1 volume of acetonitrile. The resulting samples were analyzed by LC/MS to determine degradation rates in SGF.

Row | Structure (SMILES) | Assay 2 (SIF) (% @ Remaining 4 hours) [1] | Assay 1 (SGF) (% Remaining @ 1 hour) [2]
1 | CC(=O)Oc1ccc(C2CC(=O)c3c(OC(C)=O)cc(OC(C)=O)cc3O2)cc1 (stereo not shown) [Compound 9, [4-(5,7-diacetoxy-4-oxo-chroman-2-yl)phenyl] acetate] | A (<25% of the tested compound remaining) | C (>75% of the tested compound remaining)
2 | CCCC(=O)Oc1ccc(C2CC(=O)c3c(OC(=O)CCC)cc(OC(=O)CCC)cc3O2)cc1 (stereo not shown) [Compound 10, [4-[5,7-di(butanoyloxy)-4-oxo-chroman-2-yl]phenyl] butanoate] | A (<25% of the tested compound remaining) | B (25-75% of the tested compound remaining)
3 | CCC(=O)Oc1cc(OC(=O)CC)c2c(=O)c(OC(=O)CC)c(-c3cc(OC(=O)CC)c(OC(=O)CC)c(OC(=O)CC)c3)oc2c1 [Compound 13, [4-oxo-3,5-di(propanoyloxy)-2-[3,4,5-tri(propanoyloxy)phenyl]chromen-7-yl] propanoate] | A (<25% of the tested compound remaining) | B (25-75% of the tested compound remaining)
4 | CCC(=O)O[C@@H]1[C@H](OC(=O)CC)[C@H](C)OC(Oc2ccccc2C(=O)O)[C@H]1OC(=O)CC (stereo partly drawn) [Compound 25, 2-(((3S,4R,5R,6S)-6-methyl-3,4,5-tris(propionyloxy)tetrahydro-2H-pyran-2-yl)oxy)benzoic acid] | C (>75% of the tested compound remaining) | C (>75% of the tested compound remaining)
5 | CCC(=O)O[C@@H]1[C@@H](OC(=O)CC)[C@H](Oc2ccccc2C(=O)O)OC[C@@H]1OC(=O)CC [Compound 26, 2-(((2S,3R,4S,5S)-3,4,5-tris(propionyloxy)tetrahydro-2H-pyran-2-yl)oxy)benzoic acid] | A (<25% of the tested compound remaining) | C (>75% of the tested compound remaining)
6 | CCC(=O)O[C@@H]1[C@@H](OC(=O)CC)[C@H](Oc2ccccc2C(=O)O)OC[C@H]1OC(=O)CC [Compound 27, 2-(((2S,3R,4S,5R)-3,4,5-tris(propionyloxy)tetrahydro-2H-pyran-2-yl)oxy)benzoic acid] | B (25-75% of the tested compound remaining) | C (>75% of the tested compound remaining)
7 | CCCC(=O)O[C@@H]1[C@@H](OC(=O)CCC)[C@@H](Oc2ccccc2C(=O)O)OC[C@@H]1OC(=O)CCC [Compound 31, 2-(((2R,3R,4S,5S)-3,4,5-tris(butyryloxy)tetrahydro-2H-pyran-2-yl)oxy)benzoic acid] | A (<25% of the tested compound remaining) | C (>75% of the tested compound remaining)
8 | CCCC(=O)O[C@@H]1[C@H](OC(=O)CCC)[C@H](C)OC(Oc2ccc(N)cc2C(=O)O)[C@H]1OC(=O)CCC (stereo partly drawn) [Compound 41, 5-amino-2-(((3S,4R,5R,6S)-3,4,5-tris(butyryloxy)-6-methyltetrahydro-2H-pyran-2-yl)oxy)benzoic acid] | C (>75% of the tested compound remaining) | C (>75% of the tested compound remaining)
9 | CCCC(=O)O[C@@H]1[C@@H](OC(=O)CCC)[C@@H](OC(=O)CCc2c[nH]c3ccccc23)OC[C@@H]1OC(=O)CCC [Compound 81, (2R,3R,4S,5S)-4,5-bis(butanoyloxy)-2-{[3-(1H-indol-3-yl)propanoyl]oxy}oxan-3-yl butanoate] | A (<25% of the tested compound remaining) | B (25-75% of the tested compound remaining)
10 | CCC(=O)OC[C@H]1OC(O)[C@H](OC(=O)CC)[C@@H](OC(=O)CC)[C@@H]1OC(=O)CC (stereo partly drawn) [Compound 110, [(2R,3R,4S,5R)-6-hydroxy-3,4,5-tris(propanoyloxy)oxan-2-yl]methyl propanoate] | A (<25% of the tested compound remaining) | C (>75% of the tested compound remaining)
11 | CCC(=O)O[C@H]1[C@H](OC(=O)CC)[C@H](OC(=O)Cc2c[nH]c3ccccc23)O[C@@H](C)[C@H]1OC(=O)CC [Compound 118, (2S,3S,4R,5R,6S)-2-{[2-(1H-indol-3-yl)acetyl]oxy}-6-methyl-4,5-bis(propanoyloxy)oxan-3-yl propanoate] | A (<25% of the tested compound remaining) | C (>75% of the tested compound remaining)
12 | CCC(=O)OC1O[C@@H](C)[C@@H](OC(=O)CC)[C@@H](OC(=O)CC)[C@@H]1OC(=O)CC (stereo partly drawn) [Compound 125, (3S,4R,5R,6S)-6-methyl-3,4,5-tris(propanoyloxy)oxan-2-yl propanoate] | A (<25% of the tested compound remaining) | C (>75% of the tested compound remaining)
13 | CCC(=O)O[C@@H]1[C@@H](OC(=O)CC)[C@@H](OC(=O)CC)CO[C@H]1O [Compound 127, (3S,4S,5R,6R)-6-hydroxy-4,5-bis(propanoyloxy)oxan-3-yl propanoate] | B (25-75% of the tested compound remaining) | C (>75% of the tested compound remaining)
14 | CCC(=O)O[C@@H]1[C@@H](OC(=O)CC)[C@H](OC(=O)CC)CO[C@H]1O [Compound 129, (2R,3R,4S,5R)-2-hydroxy-4,5-bis(propanoyloxy)oxan-3-yl propanoate] | A (<25% of the tested compound remaining) | C (>75% of the tested compound remaining)
15 | CCC(=O)OC1OC[C@@H](OC(=O)CC)[C@H](OC(=O)CC)[C@H]1OC(=O)CC (stereo partly drawn) [Compound 130, (3R,4S,5R)-3,4,5-tris(propanoyloxy)oxan-2-yl propanoate] | A (<25% of the tested compound remaining) | C (>75% of the tested compound remaining)
16 | CCCC(=O)O[C@@H]1[C@H](OC(=O)CCC)[C@H](C)OC(O)[C@H]1OC(=O)CCC (stereo partly drawn) [Compound 136, (3S,4R,5R,6S)-4,5-bis(butanoyloxy)-2-hydroxy-6-methyloxan-3-yl butanoate] | A (<25% of the tested compound remaining) | C (>75% of the tested compound remaining)
17 | CCCC(=O)O[C@H]1[C@@H](OC(=O)CCC)COC(O)[C@@H]1OC(=O)CCC (stereo partly drawn) [Compound 151, (3S,4S,5R)-4,5-bis(butanoyloxy)-6-hydroxyoxan-3-yl butanoate] | A (<25% of the tested compound remaining) | C (>75% of the tested compound remaining)
18 | CCC(=O)Oc1cc(OC(=O)CC)c2c(=O)c(OC(=O)CC)c(-c3ccc(OC(=O)CC)c(OC(=O)CC)c3)oc2c1 [Compound 174, [4-[4-oxo-3,5,7-tri(propanoyloxy)chromen-2-yl]-2-propanoyloxy-phenyl] propanoate] |  | C (>75% of the tested compound remaining)
19 | CC(=O)Oc1ccc(-c2oc3cc(OC(C)=O)cc(OC(C)=O)c3c(=O)c2OC(C)=O)cc1 [Compound 177, [4-(3,5,7-triacetoxy-4-oxo-chromen-2-yl)phenyl] acetate] |  | C (>75% of the tested compound remaining)
20 | CCC(=O)Oc1cc(OC(=O)CC)c2c(c1)O[C@H](c1cc(OC(=O)CC)c(OC(=O)CC)c(OC(=O)CC)c1)[C@H](OC(=O)c1cc(OC(=O)CC)c(OC(=O)CC)c(OC(=O)CC)c1)C2 [Compound 195, [(2R,3R)-5,7-di(propanoyloxy)-2-[3,4,5-tri(propanoyloxy)phenyl]chroman-3-yl] 3,4,5-tri(propanoyloxy)benzoate] |  | C (>75% of the tested compound remaining)
